Measured values published in patent US20230235282A1, “SERUM-FREE INDUCTION METHOD FOR SENSORY NEURON CELL” (IREGENE THERAPEUTICS LTD, priority 2020, published 2023).
Like-named read-outs stand apart in the source and are kept apart here. Each block holds one molecule with its values, some of them ahead of it.

What was measured:
[1] = system: sensory neuron cells from CD34+-derived induced pluripotent stem cells; assay: Morphology / axon formation of induced sensory neuron cells; type: cell-based, human; settings: for axon formation: low (3 μM), medium (6 μM) and high (10 μM) concentration
Method: After obtaining the above-mentioned various sensory nerve precursor cells, the medium was removed, and cells were washed with DPBS, and then treated with 0.05% trypsin/EDTA at 37° C. for 5 minutes, and then cell digestion was terminated with DMEM. After the cells were washed and centrifuged, the cells were re-seeded in a T25 culture flask at 1-5×10^5 per plate, and the sensory nerve precursor cells were induced to differentiate and expand into mature sensory neurons by using sensory neuron cell medium. The conditions for cell culture were 37° C., 5% CO2.

[2] = system: sensory neuron cells from CD34+-derived induced pluripotent stem cells; assay: Q-PCR of marker genes in induced sensory neuron cells
Method: Total RNA from different sensory neuron cells was extracted by RNeasy Mini or Micro Kit (QIAGEN), and cDNA was synthesized from 1 mg RNA by SuperScript III First-Strand Synthesis System (Invitrogen). SYBR Premix Ex Taq (TaKaRa) and Thermal Cycler Dice Real Time System (TaKaRa) were used for labeling and reaction of Quantitative PCR, and beta-Actin was used as internal control. All data were analyzed by delta-Ct method. Triplicates were used for each group of experiments, and statistics were performed with ANOVA.

[3] = Osmotic pressure of the culture system by freezing point osmometer; type: physicochemical
Method: In order to observe the effect of different concentrations of glycine-glutamine monohydrate on osmotic pressure, the effect of different concentrations of glycine-glutamine monohydrate on the osmotic pressure of culture system was detected by using an automatic freezing point osmometer (FM-8P, Shanghai Medical University Instrument Co., Ltd.), and specific operations were performed according to the product manual (FM-8P, Shanghai Medical University Instrument Co., Ltd.).

[4] = system: sensory nerve precursor cells from CD34+-derived cells; assay: Induction of sensory nerve precursor cells with different small molecules (morphology, Q-PCR of precursor markers); type: cell-based, human; settings: 5 μM in induction medium
Method: When the induced pluripotent stem cells reached 70% coverage, they were digested with 0.05% trypsin/EDTA for 5 min at 37° C., and the cell digestion was terminated by using DMEM. After the cells were washed and centrifuged, they were re-seeded in a T25 culture plate at 2×10^5 per flask, and cultured in a sensory neuron induction medium at 37° C., 5% CO2 (Panasonic, MCO-18AC) for 10 days until the formation of neural plate, which confirmed the formation of sensory nerve precursor cells.
All data were analyzed by delta-Ct method.
(5.2) Taking CD34+-derived cells as an example, different small molecules (5 μM RepSox, 5 μM SB525334 and 5 μM TEW-7197 molecules) were used to replace the LY2157299 in the sensory neuron induction medium N2GS212I-2 in Section (3.1) of Example 3; steps in Section (3.1) of Example 3 were repeated to observe the effects of different small molecules on the induced sensory nerve precursor cells.
(5.3) Taking CD34+-derived cells as an example, steps of Example 4 (4.3) were repeated by using the sensory nerve precursor cells obtained in (5.2), and the effects of different small molecules on the expression of neuronal precursor cell markers during the formation of sensory nerve precursor cells were observed. As shown in the figures, the different inhibitor molecules were not only able to form neuron precursor cells (forming a neural plate structure shown in the figure), but also able to increase the expressions of neuron precursor cell markers.

sodium ion channel 1.7 = target: T1, sodium ion channel 1.7 (Homo sapiens, UniProt Q15858); assay: MEA spontaneous discharge after PF-05089771; type: cell-based; settings: for electrophysiological strength of sodium ion channels of induced cells: various concentrations in induction/culture medium, after 1 μM PF-05089771, fibroblast-derived
T1 construct: endogenous in cells; host or cells: sensory neurons induced from human fibroblast-derived iPSCs
T1 sequence (Q15858 whole entry): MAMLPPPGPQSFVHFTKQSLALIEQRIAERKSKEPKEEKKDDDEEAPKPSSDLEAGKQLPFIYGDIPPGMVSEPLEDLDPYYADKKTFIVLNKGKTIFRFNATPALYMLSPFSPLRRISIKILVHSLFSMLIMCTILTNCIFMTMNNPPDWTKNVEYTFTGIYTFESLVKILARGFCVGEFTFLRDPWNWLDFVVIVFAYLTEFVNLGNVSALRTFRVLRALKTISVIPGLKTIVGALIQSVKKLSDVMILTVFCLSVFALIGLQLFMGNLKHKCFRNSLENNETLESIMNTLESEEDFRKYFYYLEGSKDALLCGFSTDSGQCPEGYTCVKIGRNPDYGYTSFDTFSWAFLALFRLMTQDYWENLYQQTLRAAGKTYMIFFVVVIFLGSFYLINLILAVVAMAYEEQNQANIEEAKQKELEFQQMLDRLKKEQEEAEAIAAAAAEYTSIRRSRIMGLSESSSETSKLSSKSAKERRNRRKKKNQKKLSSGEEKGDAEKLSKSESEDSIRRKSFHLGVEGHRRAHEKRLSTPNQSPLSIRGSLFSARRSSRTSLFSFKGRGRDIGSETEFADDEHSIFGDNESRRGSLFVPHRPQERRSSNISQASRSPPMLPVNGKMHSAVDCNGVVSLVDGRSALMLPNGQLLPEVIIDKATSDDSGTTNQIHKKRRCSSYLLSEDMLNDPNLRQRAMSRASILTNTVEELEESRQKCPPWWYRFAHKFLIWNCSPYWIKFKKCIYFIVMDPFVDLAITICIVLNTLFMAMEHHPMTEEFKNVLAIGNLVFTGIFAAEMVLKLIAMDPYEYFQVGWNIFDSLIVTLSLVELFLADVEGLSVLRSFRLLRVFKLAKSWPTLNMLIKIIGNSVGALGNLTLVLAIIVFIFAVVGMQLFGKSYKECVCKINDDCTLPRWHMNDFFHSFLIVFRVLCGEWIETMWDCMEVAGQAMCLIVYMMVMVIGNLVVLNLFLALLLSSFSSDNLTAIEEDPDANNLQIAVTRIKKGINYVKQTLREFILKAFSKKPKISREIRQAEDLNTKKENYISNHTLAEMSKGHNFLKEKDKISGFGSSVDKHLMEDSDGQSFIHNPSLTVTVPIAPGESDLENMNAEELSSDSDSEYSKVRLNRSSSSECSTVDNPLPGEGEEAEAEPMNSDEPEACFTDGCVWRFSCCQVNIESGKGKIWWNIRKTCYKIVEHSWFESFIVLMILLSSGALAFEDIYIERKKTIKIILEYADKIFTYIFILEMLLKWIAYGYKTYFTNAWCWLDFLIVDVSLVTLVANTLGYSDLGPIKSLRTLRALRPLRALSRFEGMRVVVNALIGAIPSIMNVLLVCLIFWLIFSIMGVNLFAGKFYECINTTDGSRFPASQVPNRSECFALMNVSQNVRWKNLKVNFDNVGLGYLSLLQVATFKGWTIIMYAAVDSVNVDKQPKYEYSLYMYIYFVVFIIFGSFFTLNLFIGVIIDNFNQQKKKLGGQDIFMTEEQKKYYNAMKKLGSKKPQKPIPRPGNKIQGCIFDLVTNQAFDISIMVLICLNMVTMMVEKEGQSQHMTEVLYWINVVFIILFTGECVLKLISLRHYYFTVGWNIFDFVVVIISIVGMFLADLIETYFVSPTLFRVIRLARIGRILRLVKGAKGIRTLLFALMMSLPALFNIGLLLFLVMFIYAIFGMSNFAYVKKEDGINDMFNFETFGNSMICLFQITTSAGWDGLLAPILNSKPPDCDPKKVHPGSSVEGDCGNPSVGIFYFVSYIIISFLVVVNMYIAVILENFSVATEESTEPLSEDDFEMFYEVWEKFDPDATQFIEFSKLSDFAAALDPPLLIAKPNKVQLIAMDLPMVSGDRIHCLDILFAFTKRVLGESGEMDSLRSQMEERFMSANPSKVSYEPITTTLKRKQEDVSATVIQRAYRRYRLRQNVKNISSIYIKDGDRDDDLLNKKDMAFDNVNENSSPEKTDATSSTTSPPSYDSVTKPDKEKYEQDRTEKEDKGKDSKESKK

[5] = system: induced sensory neurons derived from fibroblasts; assay: Cyquant cell viability assay; type: cell-based, human; settings: day 1, 3, 5, 10; different concentrations of NT3
Method: The cell viability was quantitatively detected by Cyquant assay to compare the effects of different combinations of small molecule compounds on maintaining physiological states of cells during long-term culture of induced sensory neurons.
Cell plate coating was performed in a 96-well opaque cell culture plate according to the method in Example 4 (4.4.1). […] The cells were cultured in the sensory neuron cell induction medium of Example 3 with different concentrations of NT3, and the culture conditions were 37° C., 5% carbon dioxide, and the medium was half quantity changed every three days. The medium in the known method was used as a control group. Samples were taken at day 1, day 3, day 5 and day 10, respectively, and the cell viability detection was carried out by using CyQuant Kit (Invitrogen, X12223) according to the instruction manual, and date were read by SpectraMax i3 Multi-Mode Microplate Reader (VWR, ID3-STD).

Molecule: C[C@H](NC(=O)Cc1cc(F)cc(F)c1)C(=O)N[C@H](C(=O)OC(C)(C)C)c1ccccc1 [DAPT]
axon formation [1]: able to form axons | induced neuron cell markers and peripheral sensory neuron cell markers ([2]; DAPT lower than 3 μM): much lower than those in the serum control group | expression of neuron marker Tuj ([2]; DAPT more than 10 μM): increased | expression of sodium ion channel 1.8 (SCN10A) ([2]; DAPT more than 10 μM): decreased

osmotic pressure with increase of concentration ([3]; HEPES buffer in medium): increased linearly | osmotic pressure of the culture system ([3]; concentration more than 15 mM): > 320 mOsm/kg
Molecule: O=S(=O)(O)CCN1CCN(CCO)CC1 [HEPES buffer, HEPES]
cell morphology ([1]; HEPES buffer 5 mM, 10 mM, 15 mM): morphologically normal | cell tolerance ([1]; high concentration (15 mM)): cell intolerance began to appear

expression of Caspase3 relative to serum control group ([2]; LDN193189 180 nM or more): more than 1.5 times
Molecule: c1ccc2c(-c3cnn4cc(-c5ccc(N6CCNCC6)cc5)cnc34)ccnc2c1 [LDN193189]
induction of cell types with neural axons ([1]; 12 nM, 50 nM and 180 nM): cell types with neural axons can be induced | expression of sodium ion channel 1.8 (SCN10A) ([2]; LDN193189 below 12 nM): lower than that in serum control

antagonism against PF-05089771 of the induced neurons (sodium ion channel 1.7; neurons induced by using LY2157299, 1 μM PF-05089771): more antagonism against PF-05089771 | electrophysiological strength of sodium ion channels of induced cells (sodium ion channel 1.7): significantly improved
Molecule: Cc1cccc(-c2nn3c(c2-c2ccnc4ccc(C(N)=O)cc24)CCC3)n1 [LY2157299]
formation of neuron precursor cells (neural plate structure) [4]: neuron precursor cells formed | expressions of SCN9A and SCN11A compared with the serum induction method ([2]; 7.5 μM and 25 μM): significantly increased | expression of various sodium ion channel proteins versus concentration ([2]; Q-PCR, different LY2157299 concentrations in induction medium): linear increase in concentration versus protein expression | ion channel protein expressions ([2]; concentrations of below 50 nM): significantly lower than normal levels

Molecule: Cc1cccc(-c2[nH]ncc2-c2ccc3ncccc3n2)n1 [RepSox]
formation of neuron precursor cells (neural plate structure) [4]: neuron precursor cells formed

Molecule: Cc1cccc(-c2[nH]c(C(C)(C)C)nc2-c2ccc3nccnc3c2)n1 [SB525334]
formation of neuron precursor cells (neural plate structure) [4]: neuron precursor cells formed

Molecule: Cc1c[nH]c(/C=C2\C(=O)Nc3ccccc32)c1CCC(=O)O [SU5402]
axon formation [1]: could form axons | electrophysiological strength of sodium ion channels of induced cells (sodium ion channel 1.7): significantly improved | cell death marker CASP3 ([2]; SU5402 higher than 15 μM): significantly increased | expression of ion channel protein compared with serum induction method ([2]; SU5402 lower than 3 μM): lower than the control level

Molecule: Cc1cccc(-c2[nH]c(CNc3ccccc3F)nc2-c2ccc3ncnn3c2)n1 [TEW-7197]
formation of neuron precursor cells (neural plate structure) [4]: neuron precursor cells formed

Molecule: CHIR98014
expression of SCN11A (Nav1.9) compared with the serum induction method [2]: significantly increased | expression of ion channel protein [2]: lower than normal level | expression of neuron marker Tuj [2]: lower than that at other concentrations

B1: NT3: human-NT3 (Novoprotein, Cat. No. C079), added to sensory neuron cell medium (protein, UniProt P20783 139-257, looked up)
Neurotrophin-3: YAEHKSHRGEYSVCDSESLWVTDKSSAIDIRGHQVTVLGEIKTGNSPVKQYFYETRCKEARPVKNGCRGIDDKHWNSQCKTSQTYVRALTSENNKLVGWRWIRIDTSCVCALSRKIGRT
modifications: Neurotrophin-3
notes: human-NT3 (Novoprotein, Cat. No. C079), added to sensory neuron cell medium
in vitro viability of induced neurons in long-term culture vs serum induction method [5]: effectively increase the in vitro viability
